One assay deals with MIN6 cells. As to the kind of experiment: active GLP-1 secretion in MIN6 cells. It is filed as cell-based, mouse. The note with it: Fig 1H. The procedure: Endocrine differentiation was induced by seeding NCI-H716 cells in plates coated with Matrigel (Becton Dickinson). Cells were washed with RPMI-1640 medium without FBS and incubated in the same medium containing indicated compounds at 10 μmol/l. The condition medium was collected after 30 min. GLP-1 secretion in MIN6 or primary enterocytes was conducted similarly. To isolate primary enterocytes, ileum or colon was cut into 2 cm length, rinsed by PBS (pH7.2∼7.4) before dispersed in 10 mmol/l EDTA/PBS (pH7.4) for 15 min at room temperature, followed by pipetting up and down. Enterocytes were collected by filtration through a 70 μm cell strainer. To study the effect of WB403 on GLP-1 secretion in vivo, mice in group of three were fasted overnight and orally received 0, 50, 100 mg/kg of WB403 dispersed in 0.5% CMC with a DPP-4 inhibitor (5 mg/kg). There were 5 animals in each group. 2 g/kg glucose was administrated 30 min later and blood was collected 10 min after glucose challenge.
The GLP-1 (active) ELISA kit was purchased from Millipore, and insulin ELISA kit was from Mercodia. For quantitative determination of cAMP, a competitive enzyme immunoassay kit from R&D system was used. All immunoassays were performed according to manufacturers’ instructions.

Another assay concerns HFD/STZ mice. As to the kind of experiment: pancreas histology (H&E) of treated HFD/STZ mice. It is filed as in vivo. The note with it: after 8-week treatment. The procedure:
Analysis of islet cell mass was performed using conventional methods. In brief, mice were sacrificed by cervical dislocation. The body part of the pancreas was rapidly excised, fixed in 10% neutral buffered formalin solution for 24 h and embedded in paraffin, then sectioned at 5 μm ready for hematoxylin and eosin (H&E) staining and immunohistochemistry staining (IHC). The latter was carried out using rabbit anti-insulin polyclonal antibody (Cat. no. 4590, 1:600) and rabbit anti-glucagon monoclonal antibody (Cat. no. 8233s, 1:200) from Cell Signaling Technology.
Fig 5 WB403 preserved the mass of pancreatic β-cells and normal distribution of α and β-cells. (A) H&E staining of pancreas from db/db mice, and statistical result. Islets were sized by the Image J analysis software on alternated pancreatic sections spaced each by 100 μm. (B) Immunohistochemical analysis of pancreatic sections by anti-insulin antibody or anti-glucagon antibody. (C) H&E staining of pancreas from HFD/STZ mice, and statistical result. Results are representative islets from each group. 1–5 in the column graph on the right represents normal mice, diabetic mice treated with vehicle, WB403 50 mg/kg, WB403 100 mg/kg, sitagliptin 100 mg/kg respectively (n = 5). *p<0.05, **p<0.01, ***p<0.001 vs. diabetes-vehicle group.

In the next assay the test system is db/db mice. As to the kind of experiment: 4-week treatment of db/db mice. It is filed as in vivo. The procedure:
Five-week old male ICR mice and db/db (C57BL BKS cg-M+/+ lepr-/-) mice were purchased from Shanghai SLAC Laboratory Animal Co., Ltd. (Shanghai, China). Mice were housed 4–5 per cage and allowed access to normal chow diet and autoclaved water freely. They were fed at a constant room temperature (25°C) with a 12-h light (7:00 AM)/dark (7:00 PM) cycle. All the mice were monitored at least daily, and no adverse events were observed. In general, the db/db mice show a high food intake at 4-week old and become obese and develop type 2 diabetes at 8-week age. Postprandial 2 h blood glucose was assessed and mice with the similar degree of hyperglycemia and body weight were randomized into different groups in order to get a similar average PBG in each group.
Diabetic mice in group of four were treated by gavage with vehicle (0.5% carboxymethylcellulose, CMC, Sigma), WB403 50, 100 mg/kg or sitagliptin at 100 mg/kg daily for 4 weeks in db/db mice (n = 5 with chow diet), and 8 weeks in HFD/STZ mice (n = 8 with HFD, additional normal mice group with chow diet). During the entire dosing period, body weight, food intake and water intake were monitored three times per week, while FBG and PBG were measured weekly. Overnight fasted mice received an oral glucose challenge at 2 g/kg and postprandial 2 h blood glucose was measured. Animals were treated and assessed in the order of the vehicle, WB403 50, 100 mg/kg and sitagliptin 100 mg/kg group.
Fig 3 Effects of WB403 treatment in db/db mice. (A, B) FBG and PBG measured every week during the 4-week treatment period. (C, D) Serum levels of HbA1c, measured at the end of intervention by Adicon Clinical Laboratories (Shanghai, China) using an immunoturbidimetric assay on Beckman AU680 biochemical analyzer. (E) Average daily food intake per mouse during the treatment period. Data was collected three times per week. (F) Average daily water intake per mouse. (G) Body weight from different groups of mice. (H) Serum levels of insulin were measured at the end of intervention. Values are mean ± SEM (n = 5). *p<0.05, **p<0.01, ***p<0.001 vs. vehicle group.

Where [1] appears, read: db/db mice, 50, 100 mg/kg daily by gavage, after one week.
The mark [2] stands for this setting: db/db mice, end of 4-week treatment.

Consider `CCc1cc(-c2nc(C)c(COCc3ccc(Br)cc3)s2)ccn1` [WB403, 4-(5-((4-bromobenzyloxy)-methyl)-4-methylthiazol-2-yl)-2-ethylpyridine], for which the “GLP-1 stimulation in MIN6 cells” value with MIN6 cells is listed as “GLP-1 stimulation effect of WB403 was confirmed”. In addition, in the assay with HFD/STZ mice, the islet area result was “restored islet area but did not expand it beyond that of normal mice”. Besides, in the assay with db/db mice (db/db mice, 4-week treatment), the body weight result was “did not vary significantly”, the food intake entry was “did not vary significantly” and the water intake result was “decreased”. In addition, in the assay with db/db mice (setting [1]), the FBG vs vehicle entry is given as “significantly decreased” and the PBG vs vehicle entry is on record as “significantly decreased”. In the assay on db/db mice (setting [2]), the “HbA1c levels vs vehicle” value was “significantly lower” and the serum insulin levels entry is “higher insulin levels”.

(Values after paper PMC4514850, “A Novel TGR5 Activator WB403 Promotes GLP-1 Secretion and Preserves Pancreatic β-Cells in Type 2 Diabetic Mice” (PLoS ONE, 2015).)
